Reference: ChEMBL document CHEMBL4428125, “8-Substituted 1,3-dimethyltetrahydropyrazino[2,1-f]purinediones: Water-soluble adenosine receptor antagonists and monoamine oxidase B inhibitors” (Bioorg Med Chem, 2016)
pIC50, pKi: −log10 of the molar value. Values after ≈ are worked out from the molar mass of the structure shown. Active and inactive are the calls of the source. No cut-off for these calls is given here.

How the values were obtained:
[1] = target: T1, Amine oxidase [flavin-containing] B (Homo sapiens, UniProt P27338); assay: Inhibition of recombinant human MAO-B expressed in baculovirus infected BTI insect cells at 10 uM preincubated for 30 mins followed by addition of p-tyramine as substrate measured over 45 mins by Amplex Red MAO assay relative to control; conditions: 0.75 h
T1 sequence (P27338 whole entry): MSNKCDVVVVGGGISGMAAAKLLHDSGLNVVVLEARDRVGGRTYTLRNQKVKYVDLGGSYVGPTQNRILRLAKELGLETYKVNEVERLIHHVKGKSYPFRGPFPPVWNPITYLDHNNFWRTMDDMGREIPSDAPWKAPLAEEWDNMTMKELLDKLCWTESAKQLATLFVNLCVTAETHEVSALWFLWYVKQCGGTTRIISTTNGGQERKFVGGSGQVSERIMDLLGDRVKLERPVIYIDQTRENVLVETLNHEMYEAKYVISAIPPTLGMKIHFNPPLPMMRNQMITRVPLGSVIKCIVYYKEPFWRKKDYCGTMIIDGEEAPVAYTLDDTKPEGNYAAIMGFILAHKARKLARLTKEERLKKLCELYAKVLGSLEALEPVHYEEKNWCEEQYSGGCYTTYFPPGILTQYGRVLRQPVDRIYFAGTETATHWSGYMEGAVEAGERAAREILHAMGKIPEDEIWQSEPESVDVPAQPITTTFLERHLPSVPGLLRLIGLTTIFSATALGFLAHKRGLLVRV

Adenosine receptor A2a [2] = target: Adenosine receptor A2a (Rattus norvegicus, UniProt P30543); assay: Displacement of [3H]MSX from A2A receptor in rat brain striatum membranes measured after 30 mins by liquid scintillation counting method; format: cell membranes
Chain of Adenosine receptor A2a (Rattus norvegicus, UniProt P30543) (P30543 whole entry): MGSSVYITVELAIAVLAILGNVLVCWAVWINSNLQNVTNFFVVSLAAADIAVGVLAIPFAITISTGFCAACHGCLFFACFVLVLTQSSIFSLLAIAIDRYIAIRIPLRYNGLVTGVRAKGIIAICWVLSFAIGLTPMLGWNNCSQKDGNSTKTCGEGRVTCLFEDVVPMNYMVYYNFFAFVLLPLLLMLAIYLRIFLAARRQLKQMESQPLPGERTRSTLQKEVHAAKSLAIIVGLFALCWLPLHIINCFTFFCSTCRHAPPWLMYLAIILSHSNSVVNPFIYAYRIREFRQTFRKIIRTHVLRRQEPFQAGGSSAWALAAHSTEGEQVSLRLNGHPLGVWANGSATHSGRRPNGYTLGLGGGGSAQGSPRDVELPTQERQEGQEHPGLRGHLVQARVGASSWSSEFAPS

[3] = target: T1, Amine oxidase [flavin-containing] B; assay: Inhibition of recombinant human MAO-B expressed in baculovirus infected BTI insect cells preincubated for 30 mins followed by addition of p-tyramine as substrate measured over 45 mins by Amplex Red MAO assay
Adenosine receptor A3 = target: T2, Adenosine receptor A3 (Homo sapiens, UniProt P0DMS8); assay: Displacement of [3H]PSB-11 from human A3 receptor expressed in CHO cell membrane by liquid scintillation counting method relative to control; format: cell membranes
T2 sequence (P0DMS8 whole entry): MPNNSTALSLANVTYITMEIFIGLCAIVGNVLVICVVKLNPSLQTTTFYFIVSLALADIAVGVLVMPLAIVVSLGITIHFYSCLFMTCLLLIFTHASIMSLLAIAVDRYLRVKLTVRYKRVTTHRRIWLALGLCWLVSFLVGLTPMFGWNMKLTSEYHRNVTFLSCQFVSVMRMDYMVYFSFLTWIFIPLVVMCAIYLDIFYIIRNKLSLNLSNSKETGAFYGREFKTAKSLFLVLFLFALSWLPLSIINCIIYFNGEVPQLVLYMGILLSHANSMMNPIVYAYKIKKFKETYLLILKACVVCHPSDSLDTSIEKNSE

[4] = target: T3, Adenosine receptor A3 (Homo sapiens) (UniProt P0DMS8); assay: Displacement of [3H]PSB-11 from human A3 receptor expressed in CHO cell membrane at 10 uM by liquid scintillation counting method relative to control relative to control; format: cell membranes
T3 sequence (whole entry): T2 sequence (P0DMS8 whole entry)

Adenosine receptor A2a [5] = target: T4, Adenosine receptor A2a (Homo sapiens, UniProt P29274); assay: Agonist activity at recombinant human A2A receptor expressed in CHO cells assessed as increase in forskolin-induced cAMP level at 1 uM preincubated for 20 mins prior to forskolin-stimulation measure after 5 mins by liquid scintillation counting method; format: functional, cell-based
T4 sequence (P29274 whole entry): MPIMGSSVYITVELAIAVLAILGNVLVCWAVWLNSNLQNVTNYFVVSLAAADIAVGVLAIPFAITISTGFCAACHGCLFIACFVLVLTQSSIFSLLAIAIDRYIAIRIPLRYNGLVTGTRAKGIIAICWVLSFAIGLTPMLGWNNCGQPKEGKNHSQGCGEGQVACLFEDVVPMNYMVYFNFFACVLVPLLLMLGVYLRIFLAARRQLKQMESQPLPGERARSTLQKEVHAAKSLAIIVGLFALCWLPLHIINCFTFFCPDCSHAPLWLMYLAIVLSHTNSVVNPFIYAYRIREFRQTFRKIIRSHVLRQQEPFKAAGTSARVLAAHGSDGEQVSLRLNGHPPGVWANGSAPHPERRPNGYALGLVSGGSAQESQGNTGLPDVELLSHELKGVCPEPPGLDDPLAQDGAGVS

Adenosine receptor A1 [6] = target: T5, Adenosine receptor A1 (Homo sapiens, UniProt P30542); assay: Displacement of [3H]CCPA from human A1 receptor expressed in CHO cell membrane by liquid scintillation counting method; format: cell membranes
T5 sequence (P30542 whole entry): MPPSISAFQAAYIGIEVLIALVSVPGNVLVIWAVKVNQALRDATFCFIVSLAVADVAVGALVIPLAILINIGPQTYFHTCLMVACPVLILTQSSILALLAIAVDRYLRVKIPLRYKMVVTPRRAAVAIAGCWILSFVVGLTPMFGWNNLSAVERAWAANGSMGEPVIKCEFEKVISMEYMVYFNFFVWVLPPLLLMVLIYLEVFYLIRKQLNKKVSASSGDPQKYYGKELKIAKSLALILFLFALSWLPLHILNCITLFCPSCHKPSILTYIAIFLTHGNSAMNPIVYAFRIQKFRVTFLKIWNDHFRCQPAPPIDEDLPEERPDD

Adenosine receptor A2b [7] = target: T6, Adenosine receptor A2b (Homo sapiens, UniProt P29275); assay: Displacement of [3H]PSB-603 from human A2B receptor expressed in CHO cell membrane; format: cell membranes
T6 sequence (P29275 whole entry): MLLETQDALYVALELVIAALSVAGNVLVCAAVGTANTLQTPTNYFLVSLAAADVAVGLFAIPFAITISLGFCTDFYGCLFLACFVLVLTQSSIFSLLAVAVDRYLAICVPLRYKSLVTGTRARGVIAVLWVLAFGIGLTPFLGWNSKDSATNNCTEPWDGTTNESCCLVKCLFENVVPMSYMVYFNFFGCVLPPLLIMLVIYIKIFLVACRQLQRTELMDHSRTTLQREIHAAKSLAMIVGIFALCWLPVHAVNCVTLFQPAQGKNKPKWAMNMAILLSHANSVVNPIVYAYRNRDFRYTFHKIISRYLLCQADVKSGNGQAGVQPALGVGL

[8] = target: T7, Adenosine receptor A2b (Homo sapiens) (UniProt P29275); assay: Displacement of [3H]PSB-603 from human A2B receptor expressed in CHO cell membrane at 1 uM relative to control; format: cell membranes
T7 sequence (whole entry): T6 sequence (P29275 whole entry)

Adenosine receptor A2a [9] = target: T4, Adenosine receptor A2a; assay: Agonist activity at recombinant human A2A receptor expressed in CHO cells assessed as increase in forskolin-induced cAMP level at 10 uM preincubated for 20 mins prior to forskolin-stimulation measure after 5 mins by liquid scintillation counting method; format: functional, cell-based
[10] = Thermodynamic solubility of the compound at pH 7.4; format: physicochemical; conditions: buffer, read-out: Therm_solubility
Adenosine receptor A1 [11] = target: T8, Adenosine receptor A1 (Rattus norvegicus, UniProt P25099); assay: Displacement of [3H]CCPA from A1 receptor in rat brain cortex membranes by liquid scintillation counting method; format: cell membranes
T8 sequence (P25099 whole entry): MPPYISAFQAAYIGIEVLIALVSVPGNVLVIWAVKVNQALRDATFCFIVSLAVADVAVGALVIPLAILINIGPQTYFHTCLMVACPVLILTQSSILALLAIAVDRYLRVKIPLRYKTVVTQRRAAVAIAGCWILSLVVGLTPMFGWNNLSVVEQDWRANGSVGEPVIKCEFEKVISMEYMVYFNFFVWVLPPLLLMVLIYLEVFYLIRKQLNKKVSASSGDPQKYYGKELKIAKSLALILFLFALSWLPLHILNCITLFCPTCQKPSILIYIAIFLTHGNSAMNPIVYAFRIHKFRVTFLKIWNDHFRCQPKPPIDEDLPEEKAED

Adenosine receptor A2a [12] = target: T4, Adenosine receptor A2a; assay: Displacement of [3H]MSX from human A2A receptor measured after 30 mins by liquid scintillation counting method
[13] = target: T9, Adenosine receptor A1 (Homo sapiens) (UniProt P30542); assay: Agonist activity at recombinant human A1 receptor expressed in CHO cells assessed as inhibition of forskolin-induced cAMP accumulation at 10 uM preincubated for 20 mins prior to forskolin-stimulation measure after 5 mins by liquid scintillation counting method; format: functional, cell-based
T9 sequence (whole entry): T5 sequence (P30542 whole entry)

[14] = target: T9, Adenosine receptor A1 (Homo sapiens); assay: Agonist activity at recombinant human A1 receptor expressed in CHO cells assessed as inhibition of forskolin-induced cAMP accumulation at 1 uM preincubated for 20 mins prior to forskolin-stimulation measure after 5 mins by liquid scintillation counting method; format: functional, cell-based
Adenosine receptor A2b [15] = target: T6, Adenosine receptor A2b; assay: Displacement of [3H]PSB-603 from human A2B receptor expressed in CHO cell membrane measured after 75 mins by liquid scintillation counting method; format: cell membranes
Adenosine receptor A1 [16] = target: T8, Adenosine receptor A1; assay: Displacement of [3H]CCPA from rat A1 receptor by liquid scintillation counting method
[17] = target: T7, Adenosine receptor A2b (Homo sapiens); assay: Displacement of [3H]PSB-603 from human A2B receptor expressed in CHO cell membrane measured after 75 mins by liquid scintillation counting method relative to control; format: cell membranes
[18] = target: T10, Amine oxidase [flavin-containing] A (Homo sapiens, UniProt P21397); assay: Inhibition of recombinant human MAO-A expressed in baculovirus infected BTI insect cells at 10 uM preincubated for 30 mins followed by addition of p-tyramine as substrate measured over 45 mins by Amplex Red MAO assay relative to control; conditions: 0.75 h
T10 sequence (P21397 whole entry): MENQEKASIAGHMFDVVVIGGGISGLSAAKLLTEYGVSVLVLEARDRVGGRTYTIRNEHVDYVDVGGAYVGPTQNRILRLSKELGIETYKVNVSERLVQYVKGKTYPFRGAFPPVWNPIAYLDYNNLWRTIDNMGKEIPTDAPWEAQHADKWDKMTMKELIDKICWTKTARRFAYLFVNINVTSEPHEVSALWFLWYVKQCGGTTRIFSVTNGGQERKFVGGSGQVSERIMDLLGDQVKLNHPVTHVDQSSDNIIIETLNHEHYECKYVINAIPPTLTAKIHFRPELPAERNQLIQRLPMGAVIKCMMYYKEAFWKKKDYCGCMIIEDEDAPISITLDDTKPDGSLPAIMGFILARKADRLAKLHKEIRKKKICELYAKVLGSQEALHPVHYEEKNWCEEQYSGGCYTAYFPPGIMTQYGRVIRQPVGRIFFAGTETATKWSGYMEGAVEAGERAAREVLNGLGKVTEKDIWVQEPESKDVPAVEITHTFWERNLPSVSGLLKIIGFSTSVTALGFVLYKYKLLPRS

Adenosine receptor A2a [19] = target: T4, Adenosine receptor A2a; assay: Displacement of [3H]MSX from human A2A receptor by liquid scintillation counting method
Adenosine receptor A1 [20] = target: T8, Adenosine receptor A1; assay: Displacement of [3H]MSX from rat A1 receptor measured after 75 mins by liquid scintillation counting method
[21] = target: T10, Amine oxidase [flavin-containing] A; assay: Inhibition of recombinant human MAO-A expressed in baculovirus infected BTI insect cells preincubated for 30 mins followed by addition of p-tyramine as substrate measured over 45 mins by Amplex Red MAO assay
[22] = target: T3, Adenosine receptor A3 (Homo sapiens); assay: Displacement of [3H]PSB-11 from human A3 receptor expressed in CHO cell membrane at 1 uM by liquid scintillation counting method relative to control relative to control; format: cell membranes
[23] = target: T7, Adenosine receptor A2b (Homo sapiens); assay: Displacement of [3H]PSB-603 from human A2B receptor expressed in CHO cell membrane at […] relative to control; format: cell membranes
[24] = target: Adenosine receptor A2a (Rattus norvegicus) (UniProt P30543); assay: Displacement of [3H]MSX from A2A receptor in rat brain striatum membranes at 1 uM measured after 30 mins by liquid scintillation counting method relative to control; format: cell membranes
Chain of Adenosine receptor A2a (Rattus norvegicus) (P30543 whole entry): as the sequence (P30543 whole entry) above

[25] = target: T11, Adenosine receptor A1 (Rattus norvegicus) (UniProt P25099); assay: Displacement of [3H]CCPA from A1 receptor in rat brain cortex membranes at 1.5 uM by liquid scintillation counting method; format: cell membranes
T11 sequence (whole entry): T8 sequence (P25099 whole entry)

Row | SMILES | inhibition at 10 µM [1] [%] | pKi (Adenosine receptor A2a [2]) | pIC50 [3] | pKi (Adenosine receptor A3) | pKi (Adenosine receptor A1 [6]) | pKi (Adenosine receptor A2b [7]) | Activity [8] [%] | pKi (Adenosine receptor A1 [11]) | Activity [22] [%] | Activity [24] [%] | Activity [25] [%] | further results
1 | Cn1c(=O)c2c(nc3n2CCN(Cc2csc(-c4cccs4)n2)C3)n(C)c1=O | 33 | 6.92 | < 5.00 | ≤ 5.00 | 6.19 | < 6.00 | 3 | 6.78 | – | – | – | Activity [4]: 46%; Activity (Adenosine receptor A2a [5]): inactive; Activity (Adenosine receptor A2a [9]): inactive; solubility thermodynamic [10]: 700 µg/mL (≈ 1690 µM); pKi (Adenosine receptor A2a [12]): 6.69; Activity [13]: inactive; Activity [14]: inactive
2 | Cn1c(=O)c2c(nc3n2CCN(Cc2ccc(Cl)c(Cl)c2)C3)n(C)c1=O | – | – | 6.71 | < 6.00 | 6.10 | – | – | – | 13 | – | – | pKi (Adenosine receptor A2b [15]): < 6.00; pKi (Adenosine receptor A1 [16]): 6.45; Activity [17]: 15%; inhibition at 10 µM [18]: 5%; pKi (Adenosine receptor A2a [19]): 5.82; pKi (Adenosine receptor A1 [20]): 6.49; pIC50 [21]: < 5.00
3 | Cn1c(=O)c2c(nc3n2CCN(Cc2nocc2-c2ccccc2)C3)n(C)c1=O | 39 | < 6.00 | < 5.00 | 5.06 | – | – | – | < 5.82 | – | 5 | 21 | inhibition [23]: 18%
4 | Cn1c(=O)c2c(nc3n2CCN(c2ccc(Cl)cc2)C3)n(C)c1=O | 15 | < 5.00 | < 5.00 | < 6.00 | – | < 6.00 | 9 | < 5.82 | 2 | 34 | 1 | –
